This note sets out measurements from a melting point compilation (Tetko et al.).

As usually defined, the melting point is the temperature, or range, at which the solid turns liquid.

As for `COc1cc(C(=O)O)cc(NC(C)=O)c1OC`, the melting point lay within 229 to 231 °C.
`O=C(CC(=O)Nc1ccc(F)cc1)Nc1ccc(F)cc1`: the melting point lay within 217 to 219 °C.
The molecule `Cc1csc(=O)n1CC(=O)O` yielded a melting point of 193 to 195 °C.
As for `CCc1nsc(S)n1`, the melting point was 144 to 146 °C.
For `COc1cc(F)c(C(=O)O)cc1OC`, the melting point is 192 to 194 °C.
On to `CCOC(=O)c1sc2nc(C)nn2c1C`, for which the melting point is 87 to 89 °C.
Turning to `COc1ccc(C(=O)c2ccccc2Cl)c(OC)c1`, the melting point was 61 to 63 °C.
For the molecule `O=C1CCc2cc(Br)ccc2N1`, the melting point lay in the range of 169 to 171 °C.
Consider `CN(C)S(=O)(=O)c1cccc(N=C=S)c1`, for which the melting point lay within 47 to 49 °C.
In turn, `N#Cc1ccnc(S)c1` registered a melting point of 227 to 229 °C.
The molecule `Nc1cc(C(F)(F)F)ccc1Oc1ccc(Br)cc1` showed a melting point of 19 to 21 °C.
Take `O=C(O)C1CC(O)CN1C(=O)C12CC3CC(CC(C3)C1)C2` (stereo unspecified): the melting point is 206 to 208 °C.
The molecule `c1ccc2sc(C3CCNCC3)nc2c1` yielded a melting point of 127 to 129 °C.
Molecule `N#CCC(=O)c1c(Cl)cccc1Cl` had a melting point of 63 to 65 °C.
Take `O=S(=O)(NC1CCNCC1)c1ccccc1`: the melting point was 157 to 159 °C.
For `COc1cc(S(=O)(=O)Cl)c(Cl)cc1C(=O)O`, the melting point lay in the range of 159 to 161 °C.
`NS(=O)(=O)c1ccc2c(c1)oc(=O)n2CC(=O)O` came in with a melting point of 168 to 170 °C.
Take `O=C(Nc1cccc(I)c1)C(F)(F)F`: the melting point was 129 to 131 °C.
Molecule `N#Cc1cccc(CNc2ccc3[nH]c(=O)[nH]c3c2)c1` yielded a melting point of 261 to 263 °C.
The molecule `Cc1nnc(NN)[nH]c1=O` gave a melting point of 237 to 239 °C.
Take `O=c1[nH]ccc2sccc12`: the melting point lay in the range of 159 to 161 °C.
Regarding `CCOc1ccc(N)cc1Cl`, the melting point lay within 63 to 65 °C.
As for `Cn1c(=O)c2c(S)nc(C(C)(C)C)nc2n(C)c1=O`, the figure is 143 to 145 °C.
The value for `Cc1nc(=O)cc[nH]1` was 213 to 215 °C.
In turn, `O=[N+]([O-])c1ccc(NC2CCOc3ccccc32)cc1` (stereo unspecified) displayed a melting point of 124 to 126 °C.
`CCOC(=O)C(=O)CC(=O)c1ccc(OC)cc1` returned a melting point of 51 to 53 °C.
Molecule `O=C(O)c1ccc(CNC2=NS(=O)(=O)c3ccccc32)cc1` registered a melting point of 303 to 305 °C.
As for `O=C(O)c1nn(-c2ccc(F)cc2)c2c1CCC2`, the figure is 202 to 204 °C.
The value for `O=C(O)C1CC(=O)N(c2ccc3c(c2)CCC3)C1` (stereo unspecified) was 179 to 181 °C; that for `CC1=CC(=O)N(c2ccc(C(=O)O)cc2)C1=O` was 201 to 203 °C.
`N#Cc1ccc(NC2CC2)cc1` showed a melting point of 79 to 81 °C.
The molecule `O=C(O)c1cc2ccccc2c(=O)[nH]1` yielded a melting point of 318 to 320 °C.
Consider `CCNC(=O)COc1cccc(CN)c1`, for which the melting point fell in the range of 62 to 64 °C.
The value for `CN(C)S(=O)(=O)c1ccc(CCl)o1` was 54 to 56 °C; that for `Fc1ccc2c(Cl)ncnc2c1` was 90 to 92 °C; that for `NC1=C(c2nc3ccccc3[nH]2)C(=O)CN1NC(=O)c1cccs1` was 270 to 272 °C.
Turning to `c1cncc(NCc2ccco2)c1`, the melting point fell in the range of 45 to 49 °C.
In the case of `Clc1nnc(-c2ccccc2Cl)s1`, the melting point fell in the range of 93 to 95 °C.
`O=C(Nc1nccs1)C(Cl)(Cl)Cl`: the melting point was in the range of 203 to 205 °C.
With `COC(=O)c1ncsc1SCc1ccccc1`, the melting point is 92 to 94 °C.
For the molecule `O=[N+]([O-])c1ccc(F)cc1S(=O)(=O)Cl`, the melting point lay in the range of 57 to 59 °C.
In the case of `CC(=O)c1ccc(S(=O)(=O)C(F)F)cc1`, the melting point was in the range of 92 to 94 °C.
As for `COc1cccc(CO)c1OC(F)F`, the figure is 77 to 79 °C.
Regarding `O=C1Cc2cc3c(cc2CCN1)OCCO3`, the melting point lay in the range of 226 to 228 °C.
The value for `COc1cccc(C2(C(=O)O)CCCC2)c1` was 125 to 127 °C; that for `NC(=O)Cc1noc2ccccc12` was 147 to 149 °C.
In the case of `CC(NS(=O)(=O)Cc1ccccc1)C(=O)O` (stereo unspecified), the melting point was in the range of 119 to 121 °C.
With `O=C(O)c1cnn(-c2ccccn2)c1C(F)(F)F`, the melting point was in the range of 156 to 158 °C.
`Nn1c(S)nnc1COc1ccccc1` had a melting point of 163 to 167 °C.
Consider `CN(CC(C)(C)C)C(=O)c1cccc(C(=O)O)c1`, for which the melting point was 132 to 134 °C.
For `Cc1ccc(-c2nn(-c3ccccc3)cc2C(=O)O)cc1C`, the melting point lay within 215 to 217 °C.
On to `Cc1ccc(S(=O)(=O)NCCC(=O)O)cc1`, for which the melting point was in the range of 148 to 150 °C.
The value for `FC(F)(F)c1cccc2c(Cl)ncnc12` was 144 to 146 °C.
Consider `CCCCn1c(N)cc(=O)[nH]c1=O`, for which the melting point was in the range of 238 to 240 °C.
In turn, `O=C(O)c1ccc(Oc2ccc(Cl)cn2)cc1` came in with a melting point of 215 to 217 °C.
`O=S1(=O)CCCN1c1cccc(Cl)c1` yielded a melting point of 85 to 87 °C.
In the case of `CC(O)(C(=O)O)C1CC1` (stereo unspecified), the melting point lay in the range of 39 to 41 °C.
In the case of `Nc1ccc(OCc2cccc(C(F)(F)F)c2)cc1`, the melting point lay in the range of 67 to 69 °C.
Molecule `CN(C)C(=O)c1ccc(O)cc1` had a melting point of 156 to 158 °C.
For `COc1ccc2c(c1)OCC(C(=O)O)=C2`, the melting point fell in the range of 201 to 203 °C.
As for `O=C(O)C1CC1c1cc(Cl)cc(Cl)c1` (stereo unspecified), the melting point is 134 to 136 °C.
The value for `COc1cc(/C(C)=N\O)ccc1OCc1ccccc1` was 117 to 119 °C; that for `Cc1nc(Cl)cc(-c2ccccn2)n1` was 75 to 77 °C.
`Nc1nc2ccccc2o1` returned a melting point of 124 to 126 °C.
Take `COc1ccc2cc(/C=C/C(=O)O)ccc2c1`: the melting point fell in the range of 183 to 195 °C.
`CS(=O)(=O)Nc1ccc(C(F)(F)F)cc1N`: the melting point fell in the range of 126 to 128 °C.
Consider `O=C1CN(c2ccccc2)C(=O)N1`, for which the melting point was in the range of 190 to 192 °C.
On to `CCc1c(C(C)=O)oc2ccccc12`, for which the melting point was 33 to 35 °C.
Molecule `COC(=O)COc1ccc([N+](=O)[O-])c2ccccc12` displayed a melting point of 141 to 143 °C.
The value for `Cn1c(-c2ccccc2)c(C(=O)CC#N)c2ccccc21` was 155 to 157 °C.
As for `CCCCCNC1=NCC(c2ccccc2)S1` (stereo unspecified), the figure is 66 to 68 °C.
On to `O=C1CNC(=O)c2sccc2N1`, for which the melting point lay in the range of 239 to 241 °C.
As for `COC(=O)c1csc([N+](=O)[O-])c1`, the figure is 77 to 79 °C; as for `O=C(O)CCc1nnc(-c2cccnc2)o1`, 197 to 199 °C; as for `Nc1cc(S(=O)(=O)NC2CC2)ccc1O`, 119 to 121 °C.
The value for `Cc1ccc(C(=O)O)cc1S(=O)(=O)Nc1cc(Cl)ccc1F` was 181 to 183 °C.
The value for `Cc1nn(-c2ccccc2)c(Oc2ccccc2)c1C=O` was 92 to 94 °C; that for `CC(C)(C)c1ccc(C(=O)NCCC(=O)O)cc1` was 129 to 131 °C; that for `Cc1c(C(=O)O)oc2c(F)cccc12` was 236 to 238 °C.
On to `CS(=O)Cc1c(C(=O)O)sc2ccccc12` (stereo unspecified), for which the melting point lay within 183 to 185 °C.
`N#Cc1ccc(CS(=O)(=O)CC(=O)O)cc1` yielded a melting point of 197 to 199 °C.
`COC(=O)CC(=O)c1ccncc1` returned a melting point of 70 to 72 °C.
On to `C=CCOc1ccc(C(=O)O)cc1OC`, for which the melting point lay in the range of 173 to 175 °C.
`Oc1cccc(CNC2CC2)c1` gave a melting point of 125 to 127 °C.
`CNC(C)(C#N)Cn1cc(Br)cn1` (stereo unspecified) returned a melting point of 33 to 35 °C.
`CCC(C)Oc1ccccc1C=CC(=O)O` (stereo unspecified): the melting point lay within 83 to 85 °C.
Molecule `COc1ccc2c(c1)NC(=O)CO2` came in with a melting point of 157 to 159 °C.
The value for `CC(=O)CCc1ccc(OC(C)C(=O)O)cc1` (stereo unspecified) was 68 to 70 °C; that for `COc1cccnc1N` was 76 to 78 °C.
In the case of `O=C(O)Cc1c[nH]c2cccc(Br)c12`, the melting point lay within 184 to 186 °C.
The value for `Cc1nn(C)c(C)c1C(CC(=O)O)C(F)(F)F` (stereo unspecified) was 130 to 132 °C; that for `O=c1cc(CO)nc2ccccn12` was 172 to 174 °C; that for `Sc1nnc(-c2cccs2)o1` was 162 to 164 °C.
The value for `O=C(O)c1ccc2nc(S)oc2c1` was 295 to 297 °C; that for `CCC(=O)Cc1ccc(Cl)cc1Cl` was 37 to 39 °C; that for `CC(=O)N1CCC(C(=O)O)C1` (stereo unspecified) was 145 to 147 °C.
`CCc1cc(OCC(=O)O)ccc1Cl`: the melting point is 143 to 145 °C.
The value for `NC(=O)CS(=O)(=O)c1ccc(C(=O)O)cc1` was 255 to 257 °C; that for `Cc1ccc(S(=O)(=O)Cl)cc1C(=O)O` was 149 to 151 °C.
`COc1cc(C#N)ccc1OC(C)C` came in with a melting point of 71 to 73 °C.
As for `O=C(Nc1ccc(O)cc1C(=O)O)OCc1ccccc1`, the figure is 176 to 178 °C; as for `Clc1c(Br)ccc2ccccc12`, 51 to 53 °C; as for `Cn1ncc(Cl)c(Cl)c1=O`, 87 to 89 °C.
In turn, `Cc1ccc(-n2nc(-c3ccccc3)cc2N)c(C)c1` displayed a melting point of 126 to 128 °C.
Regarding `O=C1Cc2ncccc2N1`, the melting point lay within 189 to 191 °C.
For the molecule `O=C(O)CS(=O)(=O)Cc1cccs1`, the melting point fell in the range of 107 to 109 °C.
`CCOC(=O)c1c(C)nn2c(=O)cc(CCl)[nH]c12`: the melting point lay within 218 to 220 °C.
In turn, `O=C(O)CNC(=O)c1ccc(Cl)cc1` registered a melting point of 214 to 216 °C.
With `O=C(c1cc(Cl)c[nH]1)C(Cl)(Cl)Cl`, the melting point was 128 to 130 °C.
As for `O=C(O)CCOc1ccc(F)cc1F`, the figure is 76 to 78 °C; as for `O=C(O)c1cc2ccc(C(F)(F)F)cc2[nH]1`, 143 to 145 °C; as for `Oc1ccccc1-c1ccn[nH]1`, 95 to 97 °C.
Molecule `O=C(O)c1c[nH]nc1-c1ccccc1` had a melting point of 286 to 288 °C.
`Clc1nc(-c2ccsc2)nc2sc3c(c12)CCCC3` showed a melting point of 148 to 150 °C.
`c1ccc(-c2nnco2)cc1` returned a melting point of 35 to 37 °C.
The value for `Cc1ccc(-c2nc(C)c(C(=O)O)s2)c(C)c1` was 218 to 220 °C; that for `Cc1cc2nc(Cl)cc(=O)n2o1` was 203 to 204 °C; that for `NC(=O)Cc1nc2ccccc2s1` was 167 to 169 °C.
The molecule `COc1ccc(S(N)(=O)=O)c(N)c1` gave a melting point of 139 to 141 °C.
Molecule `COc1ccc(S(=O)(=O)Cl)c(C)c1C` returned a melting point of 84 to 86 °C.
For `COc1ccc(Br)c(-c2nnc(CCC(=O)O)o2)c1`, the melting point was 116 to 118 °C.
